From ChEMBL document CHEMBL1153699, “Discovery and optimization of antibacterial AccC inhibitors” (Bioorg Med Chem Lett, 2009)
≈ marks a conversion by molar mass, not a printed value.

System: not listed separately
Experiment: Inhibition of Escherichia coli HS294 ACCase
Conditions: not given; call rule not given here

IC50 | Structure (SMILES)
Not Active | COc1cc(Cc2cnc(N)nc2N)cc(OC)c1OC [TRIMETHOPRIM]

Same assay, conditions: read-out: IC50

Structure (SMILES) | IC50
Cc1ccccc1CNc1nc2cc(C(N)=O)ccc2n1CC1CCCCC1 | 28000 nM
NC(=O)c1cc(S(=O)(=O)NCc2ccc(Cl)cc2)c2c(c1)nc(NCc1ccccc1Cl)n2C[C@H]1CCCCC[C@H]1O | 2100 nM
CNC(=O)c1ccc2c(c1)nc(NCc1ccccc1Cl)n2CC1CCCCC1 | > 20000 nM
CC(C)(CO)Cn1c(NCc2ccccc2Cl)nc2cc(C(N)=O)ccc21 | 700 nM
NC(=O)c1ccc2c(c1)nc(NCc1ccccc1Br)n2CC1CCCCC1 | 143000 nM
C[C@H](O)Cn1c(NCc2ccccc2Cl)nc2nc(C(N)=O)ccc21 | 270 nM
NC(=O)c1cc(Cl)c2c(c1)nc(NCc1ccccc1Cl)n2CC1CCCCC1 | 1600 nM
Cn1c(NCc2ccccc2Cl)nc2cc(C(N)=O)cc([N+](=O)[O-])c21 | 3500 nM
NC(=O)c1ccc2c(n1)nc(NCc1ccccc1Cl)n2C1CCCCC1 | 130 nM
C[C@@H](c1ccccc1)n1c(NCc2ccccc2Cl)nc2nc(C(N)=O)ccc21 | 2060 nM
NC(=O)c1ccc2c(n1)nc(NCc1ccccc1Cl)n2Cc1ccccc1 | 170 nM
Cn1c(NCc2ccccc2Cl)nc2cc(C(N)=O)cc(N)c21 | 50000 nM
NC(=O)c1cc([N+](=O)[O-])c2c(c1)nc(NCc1ccccc1Cl)n2C[C@H]1CCCCC[C@H]1O | 10 nM
CC(C)CCNS(=O)(=O)c1cc(C(N)=O)cc2nc(NCc3ccccc3Cl)n(C[C@H]3CCCCC[C@H]3O)c12 | 800 nM
NC(=O)c1cc(Br)c2c(c1)nc(NCc1ccccc1Cl)n2C[C@H]1CCCCC[C@H]1O | 130 nM
CSc1cc(C(N)=O)cc2nc(NCc3ccccc3Cl)n(C[C@H]3CCCCC[C@H]3O)c12 | 170 nM
C[S+]([O-])c1cc(C(N)=O)cc2nc(NCc3ccccc3Cl)n(C[C@H]3CCCCC[C@H]3O)c12 (some centres undefined) | 260 nM

Structure (SMILES) | IC50
NC(=O)c1ccc2c(n1)nc(NCc1ccccc1Cl)n2Cc1ccc2c(c1)OCCO2 | 2750 nM
CNS(=O)(=O)c1cc(C(N)=O)cc2nc(NCc3ccccc3Cl)n(C[C@H]3CCCCC[C@H]3O)c12 | 380 nM
CC(C)(C)OCCCn1c(NCc2ccccc2Cl)nc2nc(C(N)=O)ccc21 | 350 nM
NC(=O)c1ccc2c(c1)nc(NCc1c(Cl)cccc1Cl)n2CC1CCCCC1 | 241000 nM
NC(=O)c1ccc2c(c1)nc(NCc1cccc(Cl)c1)n2CC1CCCCC1 | 40000 nM
NC(=O)c1ccc2c(c1)nc(NCc1ccc(Cl)cc1)n2CC1CCCCC1 | 63000 nM
COc1ccccc1Cn1c(NCc2ccccc2Cl)nc2nc(C(N)=O)ccc21 | 2840 nM
NC(=O)c1ccc2c(n1)nc(NCc1ccccc1Cl)n2CC1COc2ccccc2O1 (centres undefined) | 300 nM
COc1ccccc1CNc1nc2cc(C(N)=O)ccc2n1CC1CCCCC1 | 139000 nM
NC(=O)c1ccc2c(c1)nc(NCc1ccccc1Cl)n2CC[C@H](O)CO | 400 nM
NC(=O)c1ccc2c(n1)nc(NCc1ccccc1Cl)n2[C@@H]1CCc2ccccc21 | 20 nM
NC(=O)c1ccc2c(c1)nc(NCc1ccccc1)n2CC1CCCCC1 | 15800 nM
NC(=O)c1ccc2c(c1)nc(NCc1ccccc1Cl)n2CC1CCCCC1 | 5000 nM
NC(=O)c1ccc2c(c1)nc(NCc1ccccc1Cl)n2[C@H]1CCCc2ccccc21 | 1300 nM
NC(=O)c1ccc2c(c1)nc(NCc1ccccc1Cl)n2CCc1c[nH]c2ccccc12 | 9500 nM
NC(=O)c1ccc2c(c1)nc(NCc1ccccc1Cl)n2CCc1ccccc1 | 8900 nM
NC(=O)c1ccc2c(c1)nc(NCc1ccccc1Cl)n2[C@H]1CCc2ccccc21 | 14700 nM

The next lines start with the values.

IC50 | Structure (SMILES)
16900 nM | NC(=O)c1ccc2c(c1)nc(NCc1ccccc1F)n2CC1CCCCC1
144000 nM | NC(=O)c1ccc2c(c1)nc(NCc1ccccc1C(F)(F)F)n2CC1CCCCC1
160 nM | NC(=O)c1ccc2c(n1)nc(NCc1ccccc1Cl)n2CC1CCCCC1
20 nM | CC(C)(CO)Cn1c(NCc2ccccc2Cl)nc2nc(C(N)=O)ccc21
190 nM | NC(=O)c1ccc2c(n1)nc(NCc1ccccc1Cl)n2CCCO
90 nM | NC(=O)c1cc([N+](=O)[O-])c2c(c1)nc(NCc1ccccc1Cl)n2[C@H]1CCc2ccccc21
5000 nM | NC(=O)c1cc(N)c2c(c1)nc(NCc1ccccc1Cl)n2C[C@H]1CCCCC[C@H]1O
41000 nM | C[C@H](Nc1nc2cc(C(N)=O)ccc2n1CC1CCCCC1)c1ccccc1
3010 nM | NC(=O)c1ccc2c(n1)nc(NCc1ccccc1Cl)n2CC(O)COc1ccccc1 (centres undefined)
700 nM | NC(=O)c1cc(S(N)(=O)=O)c2c(c1)nc(NCc1ccccc1Cl)n2C[C@H]1CCCCC[C@H]1O
40000 nM | NC(=O)c1ccc2c(n1)nc(NCc1ccccc1Cl)n2Cc1cccc(OC(F)(F)F)c1
171000 nM | NC(=O)c1ccc2c(c1)nc(NCc1cccc3ccccc13)n2CC1CCCCC1
60 nM | CS(=O)(=O)c1cc(C(N)=O)cc2nc(NCc3ccccc3Cl)n(C[C@H]3CCCCC[C@H]3O)c12
100 nM | CC(C)S(=O)(=O)c1cc(C(N)=O)cc2nc(NCc3ccccc3Cl)n(C[C@H]3CCCCC[C@H]3O)c12
500 nM | NC(=O)c1ccc2c(c1)nc(NCc1ccccc1Cl)n2C[C@H]1CCCCC[C@H]1O
2000 nM | NC(=O)c1ccc2c(c1)nc(NCc1ccccc1Cl)n2CCCO
700 nM | NC(=O)c1ccc2c(c1)nc(NCc1ccccc1Cl)n2[C@@H]1CCc2ccccc21
2100 nM | CC1CCCCC1n1c(NCc2ccccc2Cl)nc2cc(C(N)=O)ccc21 (centres undefined)

System: Escherichia coli
Experiment: Antimicrobial activity against Escherichia coli HS294
Type: functional
Conditions: not given

Structure (SMILES) | MIC
NC(=O)c1cc([N+](=O)[O-])c2c(c1)nc(NCc1ccccc1Cl)n2C[C@H]1CCCCC[C@H]1O | 0.2 µg/mL (≈ 0.424 µM)
NC(=O)c1cc(Br)c2c(c1)nc(NCc1ccccc1Cl)n2C[C@H]1CCCCC[C@H]1O | 0.4 µg/mL (≈ 0.791 µM)
C[S+]([O-])c1cc(C(N)=O)cc2nc(NCc3ccccc3Cl)n(C[C@H]3CCCCC[C@H]3O)c12 (some centres undefined) | 12.5 µg/mL (≈ 25.6 µM)
NC(=O)c1ccc2c(n1)nc(NCc1ccccc1Cl)n2[C@@H]1CCc2ccccc21 | 0.8 µg/mL (≈ 1.91 µM)

Results, then the compound that gave them:

MIC | Structure (SMILES)
1.6 µg/mL (≈ 4.13 µM) | CC(C)(CO)Cn1c(NCc2ccccc2Cl)nc2nc(C(N)=O)ccc21
1.6 µg/mL (≈ 3.17 µM) | CS(=O)(=O)c1cc(C(N)=O)cc2nc(NCc3ccccc3Cl)n(C[C@H]3CCCCC[C@H]3O)c12
